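Five compound concentrations were applied to cells in 96-well plates for 48 hours; endpoints were derived by simple linear interpolation of the resulting dose-response curve. GI50 is the concentration that inhibits growth by half. At the TGI there is no net growth.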
Columns and labels:
Test in all cases: NCI anticancer screen, dose series, 48 h
[1] = test system: CAKI-1 renal
[2] = test system: COLO 205 colon
[3] = test system: HCT-15 colon
[4] = test system: KM12 colon
[5] = test system: OVCAR-8 ovarian
[6] = test system: SK-MEL-28 melanoma
[7] = test system: SW-620 colon
[8] = test system: U251 CNS
[9] = test system: MDA-MB-231 breast
[10] = test system: MDA-N

SMILES	TGI [1] [µM]	TGI [2] [µM]	TGI [3] [µM]	TGI [4] [µM]	TGI [5] [µM]	TGI [6] [µM]	TGI [7] [µM]	TGI [8] [µM]	TGI [9] [µM]	TGI [10] [µM]	GI50 [1] [µM]	GI50 [2] [µM]	GI50 [3] [µM]	GI50 [4] [µM]	GI50 [9] [µM]	GI50 [5] [µM]	GI50 [6] [µM]	GI50 [7] [µM]	GI50 [8] [µM]
CC1(C)COC(c2c(-c3ccccc3)noc2CS(=O)c2ccccc2)=N1 (configuration not stated)	> 100	> 100	> 100	> 100	> 100	> 100	> 100	> 100	–	–	–	–	–	–	–	–	–	–	–
CCN(CC)CCCCC1CCN(CC(=O)N2c3ccccc3NC(=O)CC2C)CC1 (configuration not stated)	> 100	> 100	> 100	> 100	> 100	> 100	> 100	> 100	–	–	–	–	–	–	–	–	–	–	–
O=C1C=C(N2CCN(c3ccccn3)CC2)C(=O)c2c(O)ccc(O)c21	> 46.4	16	39.1	> 46.4	> 90.8	> 56.2	45.2	23	44.9	5.76	–	–	–	–	–	–	–	–	–
C=CCOC(=O)CCCCCCCCCCCCCCCOC(=O)C1=C(CCC[C@@H](C)O[Si](C)(C)C(C)(C)C)NC(=O)N2[C@H](CC3(CC/C=C\[C@H](CC)O[Si](C(C)C)(C(C)C)C(C)C)OCCO3)CC[C@H]12	> 100	> 100	> 100	> 100	–	> 100	–	> 100	> 100	> 100	–	–	–	–	–	–	–	–	–
O=CNNC(=O)Nc1ccc(Cl)cc1	–	> 100	> 100	> 100	> 100	> 100	> 100	> 100	> 100	–	–	–	–	–	–	–	–	–	–
CC12CC(C/C1=N/O)C(C)(C)C2 (configuration not stated)	> 100	> 100	–	> 100	> 100	> 100	> 100	> 100	> 100	> 100	–	–	–	–	–	–	–	–	–
O=C1CSC2(CC(/C=C/c3ccccc3Br)=NN2c2cccc(S(=O)(=O)O)c2)N1c1nc2ccccc2s1 (configuration not stated)	> 100	> 100	> 100	> 100	> 100	> 100	> 100	> 100	> 100	> 100	–	–	–	–	–	–	–	–	–
O=C(OCc1ccccc1C1CSCSC1)c1cc(C(=O)OCc2ccccc2C2CSCSC2)c(C(=O)OCc2ccccc2C2CSCSC2)cc1C(=O)OCc1ccccc1C1CSCSC1	> 100	> 100	> 100	> 100	> 100	> 100	> 100	> 100	–	–	–	–	–	–	–	–	–	–	–
O=C(c1ccco1)C1CC(c2ccc3ccccc3c2O)=NN1c1ccc([N+](=O)[O-])cc1[N+](=O)[O-] (configuration not stated)	> 100	32	> 100	26.2	> 100	> 100	> 100	> 100	68.7	> 100	–	–	–	–	–	–	–	–	–
OC12CCCCCC1(N1CCOCC1)c1ccccc12 (configuration not stated)	> 100	> 100	> 100	> 100	> 100	> 100	> 100	> 100	–	–	–	–	–	–	–	–	–	–	–
CC(C)C1CC(CO)(CNc2cc(Cl)nc(N)n2)C1 (configuration not stated)	> 100	> 100	> 100	> 100	> 100	> 100	> 100	> 100	> 100	> 100	–	–	–	–	–	–	–	–	–
Cc1cc(=O)[nH]c(NNC(C#N)c2ccc([N+](=O)[O-])cc2)n1 (configuration not stated)	> 100	> 100	> 100	> 100	> 100	> 100	> 100	> 100	–	–	–	–	–	–	–	–	–	–	–
CC(C)(C)c1c(C(C)(C)C)c(=O)c1=O	> 100	> 100	> 100	> 100	> 100	> 100	> 100	> 100	> 100	> 100	–	–	–	–	–	–	–	–	–
[N-]=[N+]=C(C(=O)C(=[N+]=[N-])C(=O)c1ccccc1)C(=O)c1ccccc1	–	> 100	> 100	> 100	> 100	> 100	> 100	–	> 100	> 100	–	–	–	–	–	–	–	–	–
O=c1c2c(nc3n1CCC3)sc1c(O)c(Br)ccc12	> 100	24.4	45.7	29.7	24.2	34.8	29.9	57.3	–	–	–	–	–	–	–	–	–	–	–
Cc1cc2occ(-c3ccc(Cl)cc3)c2c(=O)o1	> 100	> 100	> 100	> 100	> 100	> 100	> 100	> 100	–	–	–	–	–	–	–	–	–	–	–
O=C(CSc1nc2ccc(I)cc2c(=O)n1Cc1ccccc1)NN1C(=O)CCC1=O	6.91	> 100	> 100	> 100	> 100	> 100	> 100	> 100	> 100	> 100	–	–	–	–	–	–	–	–	–
CC(=O)NC1=C(NCC(C)C)C(=O)c2ccccc2C1=O	30.6	> 100	33.7	> 100	47.2	37.2	33.1	> 100	–	–	–	–	–	–	–	–	–	–	–
COC(=O)C(C(=O)C(=O)NC1Nc2ccc(C)cc2S1)c1nc2ccc(Cl)cc2[nH]c1=O (configuration not stated)	> 100	–	> 100	> 100	> 100	> 100	> 100	> 100	> 100	> 100	–	–	–	–	–	–	–	–	–
Cc1cn([C@H]2[C@@H](CO)C[C@H]2O)c(=O)[nH]c1=O	> 100	> 100	> 100	> 100	> 100	> 100	> 100	> 100	> 100	> 100	–	–	–	–	–	–	–	–	–
CC(=O)Nc1ccc(C(=O)N2N=C(C)/C(=C/c3ccc(O)cc3)C2=O)cc1	> 100	> 100	> 100	> 100	> 100	> 100	> 100	> 100	–	–	–	–	–	–	–	–	–	–	–
CCOC(=O)c1nc2ccccc2nc1NCc1ccc(Cl)cc1Cl	> 100	> 100	> 100	> 100	> 100	–	> 100	> 100	> 100	> 100	–	–	–	–	–	–	–	–	–

SMILES	TGI [1] [µM]	TGI [2] [µM]	TGI [3] [µM]	TGI [4] [µM]	TGI [5] [µM]	TGI [6] [µM]	TGI [7] [µM]	TGI [8] [µM]	TGI [9] [µM]	TGI [10] [µM]	GI50 [1] [µM]	GI50 [2] [µM]	GI50 [3] [µM]	GI50 [4] [µM]	GI50 [9] [µM]	GI50 [5] [µM]	GI50 [6] [µM]	GI50 [7] [µM]	GI50 [8] [µM]
N#CCCC1(CCC#N)CCCCCCC(CCC#N)(CCC#N)C(O)C1O (configuration not stated)	> 100	> 100	> 100	> 100	> 100	> 100	> 100	> 100	–	> 100	–	–	–	–	–	–	–	–	–
C/C(=N\Nc1ccccc1)C(CN(C)C)C(c1ccccc1)c1c(O)c2ccccc2oc1=O (configuration not stated)	> 100	> 100	> 100	> 100	> 100	> 100	> 100	> 100	> 100	> 100	–	–	–	–	–	–	–	–	–
CC(c1ccccc1)N1CC(C)(c2ccccc2)N(O)C(c2ccccc2)C1C (configuration not stated)	–	23.7	–	> 100	> 100	21.9	68.1	32.7	–	–	–	–	–	–	–	–	–	–	–
C=C1CC(Cn2cc(Br)c(=O)[nH]c2=O)(c2ccc(-c3ccccc3)cc2)OC1=O (configuration not stated)	4.41	2.23	3.8	3.68	4.29	0.671	1.58	18.4	9	2.35	–	–	–	–	–	–	–	–	–
COc1cc(-n2cc(-c3cc(O)c(C/C=C(\C)CCC=C(C)C)c(O)c3)nn2)cc2c1O[C@]1(C)CC[C@@H](O)C(C)(C)[C@H]1C2	> 100	22.2	9.7	31.9	> 66.4	27.6	10.7	10.9	3.24	–	0.43	3.76	1.08	2.47	0.275	3.17	0.754	0.726	0.0959
COc1ccc(C2=C(OC(=O)N(C)C)c3cccn3-c3cc(Cl)ccc3S2)cc1	> 10	> 10	> 10	> 10	> 10	> 10	> 10	–	> 10	> 10	–	–	–	–	–	–	–	–	–
CCCCCCOc1ccc(C(=N)N(CCCC)CCCC)c2ccccc12	2.86	–	–	3.09	–	3.2	3	2.97	–	–	1.39	–	–	1.61	–	–	1.77	1.52	1.5
C/C(=C\Cc1cc(O)ccc1O)CCc1c(C)cc(O)c(C=O)c1C	63.5	33.4	84.5	> 100	33.9	54.7	> 100	67.6	–	–	–	–	–	–	–	–	–	–	–
Oc1[nH]c2ccccc2c1/C=c1/cc2c(c(-c3ccc(C(F)(F)F)cc3)n1)=Nc1ccccc1-2	27.5	5.13	15.8	12.2	28.1	18.8	13	18.3	13.9	–	3.96	1.95	3.59	2.16	1.89	4.99	1.84	2.4	4.46
CNc1ccc(Cl)cc1S(=O)(=O)c1ccccc1[N+](=O)[O-]	–	> 100	> 100	–	> 100	> 100	> 100	> 100	> 100	> 100	–	–	–	–	–	–	–	–	–
COC(=O)/C=C/c1ccc2c(c1)CC1(Cc3ccccc3C1)C2	–	> 100	> 100	> 100	> 100	–	–	> 100	> 100	> 100	–	–	–	–	–	–	–	–	–
CCOC1=C2NC(Cc3ccc(F)cc3)=NC2C(=O)c2ccccc21 (configuration not stated)	–	87.5	–	> 100	61.9	67.8	–	> 100	–	–	–	–	–	–	–	–	–	–	–
Cc1cc(S(=O)(=O)O)c(NC(=O)c2oc3cc(O)ccc3c(=O)c2C)cc1Cl	> 100	–	> 100	> 100	> 100	> 100	> 100	> 100	> 100	> 100	–	–	–	–	–	–	–	–	–
COC(=O)n1c(C[P+](c2ccccc2)(c2ccccc2)c2ccccc2)cc2ccccc21	7.15	2.92	34.2	3.94	10.4	15.7	13.1	17.5	–	–	–	–	–	–	–	–	–	–	–
CC(C)=CCC[C@@H](C)c1c2[nH]c3ccccc3sc-2c(C)c(=O)c1=O	35.2	> 66.7	> 75	> 35.2	13.8	> 75	> 75	> 75	> 75	–	–	–	–	–	–	–	–	–	–
CCOC(=O)C1CCCCc2sc(N)c(C#N)c21 (configuration not stated)	–	> 100	> 100	> 100	> 100	> 100	> 100	> 100	> 100	> 100	–	–	–	–	–	–	–	–	–
O=S1(=O)OCCOS(=O)(=O)C1Cc1nc2ccccc2[nH]1	95.4	> 100	> 100	> 100	> 100	> 100	–	> 100	> 100	> 100	–	–	–	–	–	–	–	–	–
O=S(=O)(O)C1CCC(O)C2[N-]CCCC21.O=S(=O)(O)C1CCC(O)C2[N-]CCCC21.[Zn+2] (configuration not stated)	> 100	> 100	> 100	> 100	> 100	> 100	> 100	> 100	> 100	–	–	–	–	–	–	–	–	–	–
COc1ccc(-c2nc(-c3cnccn3)n(C3OC(CO)C(O)C(O)C3O)n2)cc1 (configuration not stated)	–	> 100	> 100	> 100	> 100	> 100	> 100	> 100	> 100	> 100	–	–	–	–	–	–	–	–	–
CC12CC(c3ccccc3O1)C(C(=O)Nc1cccc(F)c1)C(=O)N2 (configuration not stated)	> 100	> 100	> 100	> 100	80.6	> 100	> 100	> 100	–	> 100	–	–	–	–	–	–	–	–	–
COc1ccc(/C=C2\CCC(CNc3ccc(Br)cc3)C2=O)cc1 (configuration not stated)	> 100	> 100	> 100	> 100	> 100	> 100	> 100	> 100	> 100	–	–	–	–	–	–	–	–	–	–
COC(=O)CC(NC(=O)OCc1ccccc1)C(C(=O)OCc1ccccc1)C1(C)OCCO1 (configuration not stated)	–	36.5	> 100	–	> 100	> 100	> 100	> 100	–	–	–	–	–	–	–	–	–	–	–
